System: human fibroblasts (ATCC-CRL-2703)
Assay: Fibroblast proliferation, MTT coloration
Format: cell-based
Experimental: These supramolecular complexes were tested to evaluate the stimulatory activity on human fibroblasts (ATCC-CRL-2703). […] Cells were exposed to each complex for 24 and 48 hours (medium was replaced every 24 h) at 37° C. and 5% CO2. At the end of incubation period, MTT coloration was performed in order to evaluate cell viability and the increasing proliferating rate compared to untreated control cells. For each determination 6 tests were carried out. After exposure, cells were washed with […] of PBS, then 200 μl of MTT-medium are added to each culture well and incubated for 4 hours at 37° C. and 5% CO2. MTT medium is then removed and 200 μl of MTT dissolving solution (10% Triton X-100 and 0.1 N HCl in dry isopropanol) were added. After shaking on a rotating plate for 20-30′ to dissolve crystals and homogenize the solution, absorbance was read at 570 nm; background reading at 690 nm.

SMILES: NCCCCNCCCN [Spermidine (Spd) 3HCl, N-(3-aminopropyl)-1,4-butanediamine]
- % Proliferative increase at 24 h (Spd 3HCl 10 nM): 31.86%
- % Proliferative increase at 48 h (Spd 3HCl 10 nM): 35.96%
- % Proliferative increase at 24 h (Spd 3HCl 100 nM): 26.27%
- % Proliferative increase at 48 h (Spd 3HCl 100 nM): 29.39%
- % Proliferative increase at 24 h (Spd 3HCl 1 μM): 7.55%
- % Proliferative increase at 48 h (Spd 3HCl 1 μM): 13.01%
- % Proliferative increase at 24 h (Spd 3HCl 10 μM): 2.3%
- % Proliferative increase at 48 h (Spd 3HCl 10 μM): 8.48%
- % Proliferative increase at 24 h (Spd 3HCl 100 μM): 1.31%
- % Proliferative increase at 48 h (Spd 3HCl 100 μM): 4.09%
- % Proliferative increase at 24 h (Spd 3HCl 1 mM): −0.16%
- % Proliferative increase at 48 h (Spd 3HCl 1 mM): −3.22%
- % Proliferative increase at 24 h (Spd 3HCl 10 mM): −9.85%
- % Proliferative increase at 48 h (Spd 3HCl 10 mM): −9.5%
- effect on fibroblast proliferation at mmolar concentration (mmolar concentration): suppressive effect
- pattern of the proliferative effect over concentration (serial dilution): bimodal pattern
- effect on fibroblast proliferation at μmolar or nmolar levels (μmolar or nmolar levels): positive effect

Reference: patent US20160101067A1, “SUPRAMOLECULAR COMPLEXES OF POLYANIONIC POLYMERS AND SPERMIDINE IN TISSUE MAINTENANCE AND REPAIR” (TIXUPHARMA, priority 2013, published 2016)
